Literature values as cited in patent US20230120480A1, “METHODS FOR REMOVING CONTAMINANTS FROM PLANT-DERIVED PHARMACEUTICALS” (priority 2021, published 2023).

System: not given
For Cc1cc(O)c2c(c1)OC(C)(C)c1ccc(C)cc1-2 [Cannabiorcool], the “Water Soluble?” value is given as “No”. For CCCCCc1cc(O)c2c(c1)OC(C)(C)[C@@H]1CC[C@](C)(O)[C@@H](O)[C@@H]21 [Cannabiripsol], the “Water Soluble?” value is given as “No”. In the case of CCCCCc1cc(O)c2c(c1)OC(C)(C)C1=C2C(O)C(C)(O)CC1 (stereo not shown) [Cannabitriol], the “Water Soluble?” value is listed as “No”. For CCCc1cc(O)c2c(c1)OC(C)(C)C1=C2C(O)C(C)(O)CC1 (stereo not shown) [Cannabitriolvarin], the “Water Soluble?” value is listed as “No”. For CCCc1cc(O)c2c(c1)OC(C)(C)c1ccc(C)cc1-2 [Cannabivarin], the “Water Soluble?” value is listed as “No”. In the case of CCCCCc1cc(O)c2c(c1)OC(C)(C)C1CC=C(C)CC21 (stereo not shown) [Delta-8-tetrahydrocannabinol], the “Water Soluble?” value is given as “No”. For CCCCCc1cc2c(c(O)c1C(=O)O)[C@@H]1CC(C)=CC[C@H]1C(C)(C)O2 [Delta-8-tetrahydrocannabinolic acid], the “Water Soluble?” value is listed as “Yes”. In the case of CCCCCc1cc(O)c2c(c1)OC(C)(C)[C@@H]1CCC(C)=C[C@@H]21 [Delta-9-tetrahydrocannabinol, reference compound], the “Water Soluble?” value is given as “No”. In the case of CCCCc1cc(O)c2c(c1)OC(C)(C)C1CCC(C)=CC21 (stereo not shown) [Delta-9-tetrahydrocannabinol-C4], the “Water Soluble?” value is given as “No”. For CCCCCc1cc2c(c(O)c1C(=O)O)[C@@H]1C=C(C)CC[C@H]1C(C)(C)O2 [Delta-9-tetrahydrocannabinolic acid A], the “Water Soluble?” value is listed as “Yes”. For CCCCCc1cc(O)c2c(c1C(=O)O)OC(C)(C)[C@@H]1CCC(C)=C[C@@H]21 [Delta-9-tetrahydrocannabinolic acid B], the “Water Soluble?” value is given as “Yes”. In the case of CCCCc1cc2c(c(O)c1C(=O)O)[C@@H]1C=C(C)CC[C@H]1C(C)(C)O2 [Delta-9-tetrahydrocannabinolic acid-C4], the “Water Soluble?” value is listed as “Yes”. In the case of CC1=CC2c3c(O)cc(C)cc3OC(C)(C)C2CC1 (stereo not shown) [Delta-9-tetrahydrocannabiorcol], the “Water Soluble?” value is listed as “No”. In the case of CC1=CC2c3c(cc(C)c(C(=O)O)c3O)OC(C)(C)C2CC1 (stereo not shown) [Delta-9-tetrahydrocannabiorcolic acid], the “Water Soluble?” value is listed as “Yes”. For CCCc1cc2c(c(O)c1C(=O)O)[C@@H]1C=C(C)CC[C@H]1C(C)(C)O2 [Delta-9-tetrahydrocannabivarinic acid], the “Water Soluble?” value is given as “Yes”. For Cannabifuran, the “Water Soluble?” value is given as “No”. For Cannbicitran, the “Water Soluble?” value is listed as “No”. For Dehydrocannabifuran, the “Water Soluble?” value is given as “No”.

System: humans
For CCCCOCCOCCOCc1cc2c(cc1CCC)OCO2 [Piperonyl butoxide], the toxicity to humans is listed as “non-toxic”.
